In patent EP2832223A1, “HERBICIDAL COMPOSITION” (Ishihara Sangyo Kaisha, Ltd., priority 2012, dated 2013):

Tests used:
Assay type in all cases: in vivo
[1] = tested on: annual ragweed (Ambrosia artemisiifolia L.); test: Test Example 11: pot test, soil treatment, visual growth inhibition; conditions: soil treatment, 28th day after treatment, read-out: Growth inhibition rate (%) of annual ragweed Measured value
Protocol: (§1) Upland field soil was put into a 1/300,000 ha pot, and seeds of annual ragweed (Ambrosia artemisiifolia L.) were sown. On the next day, predetermined amounts of ONEHOPE NYUZAI (tradename), Click (tradename), Mikado (tradename) and a wettable powder containing bicyclopyrone prepared in accordance with a conventional formulation method were diluted with water (in an amount corresponding to 1,000 L/ha) and applied for soil treatment by a small sprayer.
(§2) On the 28th day after treatment, the state of growth of the annual ragweed was visually observed to determine the growth inhibition rate (%). The growth inhibition rate (%) (measured value) and the growth inhibition rate (%) calculated in the same manner as in the above Test Example 1 are shown in Table 11.

[2] = tested on: korean lespedeza (Kummerowia stipulacea (Maxim.) Makino); test: Test Example 6: pot test, soil treatment, visual growth inhibition; conditions: soil treatment, 14th day after treatment, read-out: Growth inhibition rate (%) of korean lespedeza Measured value
Protocol: as §1, with “korean lespedeza (Kummerowia stipulacea (Maxim.) Makino)” for “annual ragweed (Ambrosia artemisiifolia L.)”
as §2, with “14th” for “28th”, “korean lespedeza” for “annual ragweed”, “6.” for “11.”

[3] = tested on: Japanese millet (Echinochloa utilis Ohwi et Yabuno); test: Test Example 5: pot test, soil treatment, visual growth inhibition; conditions: soil treatment, 28th day after treatment, read-out: Growth inhibition rate (%) of Japanese millet Measured value
Protocol: (§3) Upland field soil was put into a 1/300,000 ha pot, and seeds of Japanese millet (Echinochloa utilis Ohwi et Yabuno) were sown. On the next day, predetermined amounts of ONEHOPE NYUZAI (tradename), Click (tradename) and SC formulation containing topramezone as an active ingredient (tradename: Clio, manufactured by BASF) were diluted with water (in an amount corresponding to 1,000 L/ha) and applied for soil treatment by a small sprayer.
as §2, with “Japanese millet” for “annual ragweed”, “5.” for “11.”

[4] = tested on: green foxtail (Setaria viridis (L.) P.Beauv.); test: Test Example 3: pot test, soil treatment, visual growth inhibition; conditions: soil treatment, 27th day after treatment, read-out: Growth inhibition rate (%) of green foxtail Measured value
Protocol: as §3, with “1/1,000,000” for “1/300,000”, “green foxtail (Setaria viridis (L.) P.Beauv.)” for “Japanese millet (Echinochloa utilis Ohwi et Yabuno)”, “sulcotrione” for “topramezone”, “Mikado,” for “Clio,”, “Bayer CropScience)” for “BASF)”
as §2, with “27th” for “28th”, “green foxtail” for “annual ragweed”, “3.” for “11.”

[5] = tested on: Japanese millet (Echinochloa utilis Ohwi et Yabuno); test: Test Example 13: pot test, soil and foliar treatment, visual growth inhibition; conditions: soil treatment and foliar treatment, 28th day after treatment, read-out: Growth inhibition rate (%) of Japanese millet Measured value
Protocol: Upland field soil was put into a 1/1,000,000 ha pot, and seeds of Japanese millet (Echinochloa utilis Ohwi et Yabuno) were sown. When the Japanese millet reached 3.8 to 4.0-leaf stage, seeds of Japanese millet were further sown in the same pot. On the next day, predetermined amounts of ONEHOPE NYUZAI (tradename), Click (tradename) and a wettable powder containing bicyclopyrone prepared in accordance with a conventional formulation method were diluted with water (in an amount corresponding to 1,000 L/ha) and applied for soil treatment and for foliar treatment by a small sprayer.
as §2, with “Japanese millet” for “annual ragweed”, “13.” for “11.”

[6] = tested on: common cocklebur (Xanthium strumarium L.); test: Test Example 12: pot test, foliar treatment, visual growth inhibition; conditions: foliar treatment at 4.2 to 4.3-leaf stage, 28th day after treatment, read-out: Growth inhibition rate (%) of common cocklebur Measured value
Protocol: Upland field soil was put into a 1/1,000,000 ha pot, and seeds of common cocklebur (Xanthium strumarium L.) were sown. When the common cocklebur reached 4.2 to 4.3-leaf stage, predetermined amounts of ONEHOPE NYUZAI (tradename), Click (tradename) and water dispersible granules containing flufenacet as an active ingredient (tradename: Cadou, manufactured by Bayer CropScience) were diluted with water (in an amount corresponding to 1,000 L/ha) and applied for foliar treatment by a small sprayer.
as §2, with “common cocklebur” for “annual ragweed”, “12.” for “11.”

[7] = tested on: sunn-hemp (Crotalaria juncea L.); test: Test Example 7: pot test, soil treatment, visual growth inhibition; conditions: soil treatment, 28th day after treatment, read-out: Growth inhibition rate (%) of sunn-hemp Measured value
Protocol: as §1, with “sunn-hemp (Crotalaria juncea” for “annual ragweed (Ambrosia artemisiifolia”
as §2, with “sunn-hemp” for “annual ragweed”, “7.” for “11.”

| SMILES | inhibition at 200 g/ha ([1]; 200 g/ha) [%] | inhibition at 200 g/ha ([2]; 200 g/ha) [%] | inhibition at 2000 g/ha ([2]; 2000 g/ha) [%] | inhibition at 500 g/ha ([3]; 500 g/ha) [%] | inhibition at 500 g/ha ([4]; 500 g/ha) [%] | inhibition at 250 g/ha ([5]; 250 g/ha) [%] | inhibition at 250 g/ha ([6]; 250 g/ha) [%] | inhibition at 200 g/ha ([7]; 200 g/ha) [%] | inhibition at 100 g/ha ([1]; 100 g/ha) [%] | inhibition at 10 g/ha ([2]; 10 g/ha) [%] | inhibition at 100 g/ha ([2]; 100 g/ha) [%] | inhibition at 30 g/ha ([3]; 30 g/ha) [%] | inhibition at 30 g/ha ([4]; 30 g/ha) [%] | inhibition at 15 g/ha ([5]; 15 g/ha) [%] | inhibition at 15 g/ha ([6]; 15 g/ha) [%] | inhibition at 100 g/ha ([7]; 100 g/ha) [%] |
| --- | --- | --- | --- | --- | --- | --- | --- | --- | --- | --- | --- | --- | --- | --- | --- | --- |
| CCNc1nc(Cl)nc(NC(C)(C)C)n1 [Terbuthylazine, N^2-tert-butyl-6-chloro-N^4-ethyl-1,3,5-triazine-2,4-diamine] | 20 | 10 | 25 | 50 | 18 | 0 | 30 | 30 | – | – | – | – | – | – | – | – |
| COc1cc(OC)nc(NC(=O)NS(=O)(=O)c2ncccc2C(=O)N(C)C)n1 [Nicosulfuron, 2-(4,6-dimethoxypyrimidin-2-ylcarbamoylsulfamoyl)-N,N-dimethylnicotinamide] | – | – | – | – | – | – | – | – | 0 | 0 | 0 | 40 | 60 | 55 | 80 | 40 |
